PMC8196787, “Design and Pharmacodynamics of Recombinant Fungus Defensin NZL with Improved Activity against Staphylococcus hyicus In Vitro and In Vivo” (International Journal of Molecular Sciences, 2021)
Values after ≈ are worked out from the molar mass of the structure shown. Positions of bridges follow the written chain, without caps; N, C: chain ends. Residues, ends and D or L forms follow the SMILES beside them.

Key:
S. aureus ATCC 43300 = experiment: microbe, parasite or virus in culture; assay type: cell-based; conditions: S. aureus ATCC 43300; microbroth dilution, MHB, 1 × 10^5 CFU/mL, 37 °C, 16–20 h, peptides 1–256 μg/mL, triplicate
Description: (§1) The microbroth dilution method was used to evaluate the MIC values of new derivative peptides. […] The MIC value was defined as the lowest concentration where no visible bacteria growth occurred after overnight incubation. CRO was used as the positive control. All assays were conducted in triplicate.

S. hyicus ACCC 61734 = experiment: microbe, parasite or virus in culture; assay type: cell-based; conditions: S. hyicus ACCC 61734 (clinical strain); microbroth dilution, MHB, 37 °C, 16–20 h, triplicate
Description: as §1

[1] = system: isolated S. hyicus (n = 207); conditions: n = 207 isolates, Japan; cited from earlier work
From the text: Staphylococcus hyicus is one of the opportunistic and commensal pathogens which can cause acute infections to animals and humans. It was reported that exfoliative toxins-producing S. hyicus is primarily known as the most common causative agent of exudative epidermitis in pigs, which occurs typically as an acute skin lesions characterized by sebaceous exudation, exfoliation, and vesicle formation. This disease with prominent morbidity and mortality occurs worldwide, resulting in considerable economic losses in the swine industry. To date, piglets infected with S. hyicus are fr ...

Compound	MIC (S. aureus ATCC 43300)	MIC (S. hyicus ACCC 61734)	Isolated S. hyicus resistant to the drug [1]
CC[C@H](C)[C@@H]1NC(=O)[C@H](CO)NC(=O)[C@H](CCCCN)NC(=O)[C@@H]2CSSC[C@@H](C(=O)N[C@@H](Cc3ccc(O)cc3)C(=O)O)NC(=O)[C@H](CCCCN)NC(=O)[C@@H]3CSSC[C@H](NC(=O)[C@H](CCC(N)=O)NC(=O)[C@H](CC(C)C)NC(=O)[C@H](CC(=O)O)NC(=O)[C@H](CC(=O)O)NC(=O)[C@H](CCC(=O)O)NC(=O)[C@H](CO)NC(=O)[C@H](Cc4c[nH]c5ccccc45)NC(=O)[C@@H]4CCCN4C(=O)CNC(=O)[C@H](CC(N)=O)NC(=O)[C@@H](NC(=O)CNC(=O)[C@H](Cc4ccccc4)NC(=O)CN)CSSC[C@H](NC(=O)[C@H](Cc4ccc(O)cc4)NC(=O)CNC(=O)CNC(=O)[C@H](CCCCN)NC(=O)[C@H](Cc4ccc(O)cc4)NC(=O)CNC(=O)[C@H](CCCCN)NC1=O)C(=O)N[C@@H](C)C(=O)N[C@@H](CCCNC(=N)N)C(=O)NCC(=O)NCC(=O)N[C@@H](Cc1ccccc1)C(=O)N[C@@H](C(C)C)C(=O)N3)C(=O)N[C@@H](Cc1c[nH]cn1)C(=O)N[C@@H](CC(N)=O)C(=O)N[C@@H](Cc1c[nH]cn1)C(=O)N2 [Peptide 7] (H-GFGCNGPWSEDDLQCHNHCKSIKGYKGGYCARGGFVCKCY-OH; disulfide 4-30, 15-37, 19-39; N-terminus and C-terminus assumed)	2 µg/mL (≈ 0.456 µM)	4 µg/mL (≈ 0.912 µM)	
CC[C@H](C)[C@@H]1NC(=O)[C@H](CO)NC(=O)[C@H](CCCCN)NC(=O)[C@@H]2CSSC[C@@H](C(=O)N[C@@H](Cc3ccc(O)cc3)C(=O)O)NC(=O)[C@H](CCCCN)NC(=O)[C@@H]3CSSC[C@H](NC(=O)[C@H](CCCNC(=N)N)NC(=O)[C@H]([C@@H](C)CC)NC(=O)[C@H](CC(=O)O)NC(=O)[C@H](CC(=O)O)NC(=O)[C@H](CCC(=O)O)NC(=O)[C@H](CO)NC(=O)[C@H](Cc4c[nH]c5ccccc45)NC(=O)[C@@H]4CCCN4C(=O)CNC(=O)[C@H](CC(N)=O)NC(=O)[C@@H](NC(=O)CNC(=O)[C@H](Cc4ccccc4)NC(=O)CN)CSSC[C@H](NC(=O)[C@H](Cc4ccc(O)cc4)NC(=O)CNC(=O)CNC(=O)[C@H](CCCCN)NC(=O)[C@H](Cc4ccc(O)cc4)NC(=O)CNC(=O)[C@H](CCCCN)NC1=O)C(=O)N[C@@H](C)C(=O)N[C@@H](CO)C(=O)N[C@@H](C)C(=O)NCC(=O)N[C@@H](Cc1ccccc1)C(=O)N[C@@H](C(C)C)C(=O)N3)C(=O)N[C@@H](Cc1c[nH]cn1)C(=O)N[C@@H](CC(N)=O)C(=O)N[C@@H](Cc1c[nH]cn1)C(=O)N2 [Peptide 8] (H-GFGCNGPWSEDDIRCHNHCKSIKGYKGGYCASAGFVCKCY-OH; disulfide 4-30, 15-37, 19-39; N-terminus and C-terminus assumed)	64 µg/mL (≈ 14.7 µM)	128 µg/mL (≈ 29.4 µM)	
CC[C@H](C)[C@@H]1NC(=O)[C@H](CO)NC(=O)[C@H](CCCCN)NC(=O)[C@@H]2CSSC[C@@H](C(=O)N[C@@H](Cc3ccc(O)cc3)C(=O)O)NC(=O)[C@H](CCCCN)NC(=O)[C@@H]3CSSC[C@H](NC(=O)[C@H](CCCCN)NC(=O)[C@H](CC(C)C)NC(=O)[C@H](CC(=O)O)NC(=O)[C@H](CC(=O)O)NC(=O)[C@H](CCC(=O)O)NC(=O)[C@H](CCC(N)=O)NC(=O)[C@H](Cc4c[nH]c5ccccc45)NC(=O)[C@@H]4CCCN4C(=O)CNC(=O)[C@H](CC(N)=O)NC(=O)[C@@H](NC(=O)CNC(=O)[C@H](Cc4ccccc4)NC(=O)CN)CSSC[C@H](NC(=O)[C@H](Cc4ccc(O)cc4)NC(=O)CNC(=O)CNC(=O)[C@H](CCCCN)NC(=O)[C@H](Cc4ccc(O)cc4)NC(=O)CNC(=O)[C@H](CCCCN)NC1=O)C(=O)N[C@@H](C)C(=O)N[C@@H](CO)C(=O)N[C@@H](C)C(=O)NCC(=O)N[C@@H](Cc1ccccc1)C(=O)N[C@@H](C(C)C)C(=O)N3)C(=O)N[C@@H](Cc1c[nH]cn1)C(=O)N[C@@H](CC(N)=O)C(=O)N[C@@H](Cc1c[nH]cn1)C(=O)N2 [Peptide 9] (H-GFGCNGPWQEDDLKCHNHCKSIKGYKGGYCASAGFVCKCY-OH; disulfide 4-30, 15-37, 19-39; N-terminus and C-terminus assumed)	4 µg/mL (≈ 0.915 µM)	8 µg/mL (≈ 1.83 µM)	
CC[C@H](C)[C@@H]1NC(=O)[C@H](CO)NC(=O)[C@H](CCCCN)NC(=O)[C@@H]2CSSC[C@@H](C(=O)N[C@@H](Cc3ccc(O)cc3)C(=O)O)NC(=O)[C@H](CCCCN)NC(=O)[C@@H]3CSSC[C@H](NC(=O)[C@H](CCC(N)=O)NC(=O)[C@H]([C@@H](C)CC)NC(=O)[C@H](CC(=O)O)NC(=O)[C@H](CC(=O)O)NC(=O)[C@H](CCC(=O)O)NC(=O)[C@H]([C@@H](C)O)NC(=O)[C@H](Cc4c[nH]c5ccccc45)NC(=O)[C@@H]4CCCN4C(=O)CNC(=O)[C@H](CC(N)=O)NC(=O)[C@@H](NC(=O)CNC(=O)[C@H](Cc4ccccc4)NC(=O)CN)CSSC[C@H](NC(=O)[C@H](Cc4ccc(O)cc4)NC(=O)CNC(=O)CNC(=O)[C@H](CCCCN)NC(=O)[C@H](Cc4ccc(O)cc4)NC(=O)CNC(=O)[C@H](CCCCN)NC1=O)C(=O)N[C@@H](C)C(=O)N[C@@H](CCCNC(=N)N)C(=O)NCC(=O)NCC(=O)N[C@@H](Cc1ccccc1)C(=O)N[C@@H](C(C)C)C(=O)N3)C(=O)N[C@@H](Cc1c[nH]cn1)C(=O)N[C@@H](CC(N)=O)C(=O)N[C@@H](Cc1c[nH]cn1)C(=O)N2 [Peptide 10] (H-GFGCNGPWTEDDIQCHNHCKSIKGYKGGYCARGGFVCKCY-OH; disulfide 4-30, 15-37, 19-39; N-terminus and C-terminus assumed)	>128 µg/mL	>128 µg/mL	
CC1(C)S[C@@H]2[C@H](NC(=O)[C@H](N)c3ccccc3)C(=O)N2[C@H]1C(=O)O [ampicillin]			76.8%
O=C(N[C@H](CO)[C@H](O)c1ccc([N+](=O)[O-])cc1)C(Cl)Cl [chloramphenicol]			24.2%
C[C@H]1c2cccc(O)c2C(=O)C2=C(O)[C@]3(O)C(=O)C(C(N)=O)=C(O)[C@@H](N(C)C)[C@@H]3[C@@H](O)[C@@H]21 [doxycycline]			1.4%
CC[C@H]1OC(=O)[C@H](C)[C@@H](O[C@H]2C[C@@](C)(OC)[C@@H](O)[C@H](C)O2)[C@H](C)[C@@H](O[C@@H]2O[C@H](C)C[C@H](N(C)C)[C@H]2O)[C@](C)(O)C[C@@H](C)C(=O)[C@H](C)[C@@H](O)[C@]1(C)O [erythromycin]			56%
NC[C@H]1O[C@H](O[C@H]2[C@H](O)[C@@H](O[C@H]3O[C@H](CO)[C@@H](O)[C@H](N)[C@H]3O)[C@H](N)C[C@@H]2N)[C@H](O)[C@@H](O)[C@@H]1O [kanamycin]			19.8%
penicillin			76.8%
